The values that follow come from patent publication US6686355B2, “Biphenyl sulfonamides useful as matrix metalloproteinase inhibitors” (Warner-Lambert Company, priority 2001, dated 2004).

Assay type in all cases: biochemical
Assay [1] addresses MMP-9FL (full length Gelatinase B) (Homo sapiens, UniProt P14780). Put plainly: Thiopeptolide hydrolysis assay, MMP-9FL. As to conditions: thiopeptolide substrate, HEPES pH 7.0, 22° C. The text has this: (§1) The assays measure the amount by which a test compound reduces the hydrolysis of a thiopeptolide substrate catalyzed by a matrix metalloproteinase enzyme. Such assays are described in detail by Ye et al., in Biochemistry, 1992;31(45):11231-11235, which is incorporated herein by reference.
(§2) Thiopeptolide substrates show virtually no decomposition or hydrolysis at or below neutral pH in the absence of a matrix metalloproteinase enzyme. A typical thiopeptolide substrate commonly utilized for assays is Ac-Pro-Leu-Gly-thioester-Leu-Leu-Gly-OEt. A 100 μL assay mixture will contain 50 mM of N-2-hydroxyethylpiperazine-N′-2-ethanesulfonic acid buffer (“HEPES”) at pH 7.0, 10 mM CaCl2, 100 μM thiopeptolide substrate, and 1 mM 5,5″-dithio-bis-(2-nitro-benzoic acid) (DTNB). The thiopeptolide substrate concentration may be varied from, for example, 10 to 800 μM to obtain Km and Kcat values. The change in absorbance at 405 nm is monitored on a Thermo Max microplate reader (Molecular Devices, Menlo Park, Calif.) at room temperature (22° C.). The calculation of the amount of hydrolysis of the thiopeptolide substrate is based on E412=13600 M^−1 cm^−1 for the DTNB-derived product 3-carboxy4-nitrothiophenoxide. Assays are carried out with and without matrix metalloproteinase inhibitor compounds, and the amount of hydrolysis is compared for a determination of inhibitory activity of the test compounds.
(§3) Several representative compounds have been evaluated for their ability to inhibit various matrix metalloproteinase enzymes. In Table I, MMP-1FL refers to full length interstitial collagenase; MMP-2FL refers to full length Gelatinase A; MMP-3CD refers to the catalytic domain of stromelysin-1; MMP-7FL refers to full length matrilysin; MMP-9FL refers to full length Gelatinase B; MMP-13CD refers to the catalytic domain of collagenase 3; and MMP-14CD refers to the catalytic domain of MMP-14. Test compounds were evaluated at various concentrations in order to determine their respective IC50 values, the micromolar concentration of compound required to cause a 50% inhibition of the catalytic activity of the respective enzyme.

Assay [2] addresses MMP-3CD (catalytic domain of stromelysin-1) (Homo sapiens, UniProt P08254). The assay can be described thus: Thiopeptolide hydrolysis assay, MMP-3CD. The note with it: thiopeptolide substrate, MES pH 6.0.
Text: as §1, §2, §3
It should be appreciated that the assay buffer used with MMP-3CD was 50 mM of 2-morpholinoethanesulfonic acid monohydrate (“MES”) at pH 6.0 rather than the HEPES buffer at pH 7.0 described above.

Assay [3] concerns the target T1, MMP-7FL (full length matrilysin) (Homo sapiens, UniProt P09237).
T1 sequence (P09237 95-267): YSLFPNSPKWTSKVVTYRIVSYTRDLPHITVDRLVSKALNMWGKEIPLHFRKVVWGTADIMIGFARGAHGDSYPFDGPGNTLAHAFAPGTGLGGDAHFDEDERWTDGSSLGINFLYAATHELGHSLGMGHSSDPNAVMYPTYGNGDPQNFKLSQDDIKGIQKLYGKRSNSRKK
Put plainly: Thiopeptolide hydrolysis assay, MMP-7FL. The note with it: thiopeptolide substrate, HEPES pH 7.0, 22° C.
Text: as §1, §2, §3

Assay [4] concerns the target T2, MMP-1FL (full length interstitial collagenase) (Homo sapiens, UniProt P03956).
T2 sequence (P03956 100-469): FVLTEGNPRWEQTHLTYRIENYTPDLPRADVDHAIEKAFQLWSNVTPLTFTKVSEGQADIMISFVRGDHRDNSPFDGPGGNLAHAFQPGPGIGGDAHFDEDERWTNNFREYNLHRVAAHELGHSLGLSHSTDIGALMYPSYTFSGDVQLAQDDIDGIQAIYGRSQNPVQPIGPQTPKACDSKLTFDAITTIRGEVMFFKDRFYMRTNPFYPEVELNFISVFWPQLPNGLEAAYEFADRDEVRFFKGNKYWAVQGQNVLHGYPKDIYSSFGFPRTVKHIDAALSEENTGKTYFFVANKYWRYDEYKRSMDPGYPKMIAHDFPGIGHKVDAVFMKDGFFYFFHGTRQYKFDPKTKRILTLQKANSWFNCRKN
Put plainly: Thiopeptolide hydrolysis assay, MMP-1FL. As to conditions: thiopeptolide substrate, HEPES pH 7.0, 22° C.
Text: as §1, §2, §3

For assay [5], the target named is MMP-14CD (catalytic domain of MMP-14) (Homo sapiens, UniProt P50281). Put plainly: Thiopeptolide hydrolysis assay, MMP-14CD. As to conditions: thiopeptolide substrate, HEPES pH 7.0, 22° C.
Text: as §1, §2, §3

In assay [6] the target is MMP-13CD (catalytic domain of collagenase 3) (Homo sapiens, UniProt P45452). The assay can be described thus: Thiopeptolide hydrolysis assay, MMP-13CD. The note with it: thiopeptolide substrate, HEPES pH 7.0, 22° C.
Text: as §1, §2, §3

The target in assay [7] is T3, MMP-2FL (full length Gelatinase A) (Homo sapiens, UniProt P08253).
T3 sequence (P08253 110-660): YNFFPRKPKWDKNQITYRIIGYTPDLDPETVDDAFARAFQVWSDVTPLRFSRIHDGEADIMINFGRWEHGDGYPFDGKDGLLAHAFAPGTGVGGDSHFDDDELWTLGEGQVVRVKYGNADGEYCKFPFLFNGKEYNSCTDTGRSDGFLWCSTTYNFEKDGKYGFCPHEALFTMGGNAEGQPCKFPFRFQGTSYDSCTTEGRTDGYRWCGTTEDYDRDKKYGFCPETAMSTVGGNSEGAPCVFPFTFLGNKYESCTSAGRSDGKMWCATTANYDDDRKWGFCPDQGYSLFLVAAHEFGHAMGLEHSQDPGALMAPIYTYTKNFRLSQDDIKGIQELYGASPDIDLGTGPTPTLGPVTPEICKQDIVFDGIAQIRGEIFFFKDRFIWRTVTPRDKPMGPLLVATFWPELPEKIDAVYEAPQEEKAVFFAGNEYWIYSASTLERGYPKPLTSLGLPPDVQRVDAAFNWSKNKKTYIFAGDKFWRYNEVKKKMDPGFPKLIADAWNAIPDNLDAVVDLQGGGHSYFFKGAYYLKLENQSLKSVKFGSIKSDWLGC
The assay can be described thus: Thiopeptolide hydrolysis assay, MMP-2FL. The note with it: thiopeptolide substrate, HEPES pH 7.0, 22° C.
Text: as §1, §2, §3

In another assay the target is T4, MMP-12CD (Homo sapiens, UniProt P39900).
T4 construct: MMP-12CD
T4 sequence (P39900 106-263 limits assumed): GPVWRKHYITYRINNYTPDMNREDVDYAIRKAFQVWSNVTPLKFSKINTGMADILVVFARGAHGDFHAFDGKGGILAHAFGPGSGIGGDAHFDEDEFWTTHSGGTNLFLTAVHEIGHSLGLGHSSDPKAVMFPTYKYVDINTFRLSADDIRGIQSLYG
The assay can be described thus: Thiopeptolide hydrolysis assay, MMP-12CD. As to conditions: thiopeptolide substrate, HEPES pH 7.0, 22° C.
Text: as §1, §2, §3

Chain of MMP-9FL (full length Gelatinase B) (P14780 94-707, species assumed): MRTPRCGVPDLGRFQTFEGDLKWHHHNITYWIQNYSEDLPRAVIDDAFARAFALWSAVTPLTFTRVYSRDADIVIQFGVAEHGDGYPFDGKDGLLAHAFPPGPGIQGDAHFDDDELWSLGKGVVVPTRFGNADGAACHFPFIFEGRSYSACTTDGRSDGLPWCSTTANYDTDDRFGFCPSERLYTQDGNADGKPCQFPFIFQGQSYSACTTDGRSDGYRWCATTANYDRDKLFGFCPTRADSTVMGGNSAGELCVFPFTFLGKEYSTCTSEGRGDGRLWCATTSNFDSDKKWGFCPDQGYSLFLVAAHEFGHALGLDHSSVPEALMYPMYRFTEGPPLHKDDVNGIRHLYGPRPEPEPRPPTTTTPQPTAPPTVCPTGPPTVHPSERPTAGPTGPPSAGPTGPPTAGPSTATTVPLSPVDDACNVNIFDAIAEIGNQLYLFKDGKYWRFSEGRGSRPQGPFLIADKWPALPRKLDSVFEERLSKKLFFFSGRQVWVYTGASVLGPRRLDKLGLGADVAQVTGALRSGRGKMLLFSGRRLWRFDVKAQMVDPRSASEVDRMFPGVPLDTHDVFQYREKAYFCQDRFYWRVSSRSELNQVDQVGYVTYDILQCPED
Chain of MMP-3CD (catalytic domain of stromelysin-1) (P08254 100-272 limits assumed): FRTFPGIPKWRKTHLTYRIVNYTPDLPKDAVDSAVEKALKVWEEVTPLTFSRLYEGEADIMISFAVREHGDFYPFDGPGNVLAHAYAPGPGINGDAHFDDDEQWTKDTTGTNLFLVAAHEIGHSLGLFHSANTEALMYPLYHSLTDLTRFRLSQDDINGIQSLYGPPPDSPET

Take `CC1(C)[C@H](C(=O)NO)N(S(=O)(=O)c2ccc(-c3ccc(Br)cc3)cc2)CCS1(=O)=O` [Example 4, (S)-4-(4′-Bromo-biphenyl-4-sulfonyl)-2,2-dimethyl-1,1-dioxo-thiomorpholine-3-carboxylic acid hydroxyamide]: the IC50 stood at 0.004 µM in assay [1]; 0.003 µM in assay [2]; 0.031 µM in assay [3]; 0.005 µM in assay [4]; 0.002 µM in assay [5]; 0.001 µM in assay [6]. This compound had an IC50 in assay [7] of 0.001 µM.

With `CC1(C)SCCN(S(=O)(=O)c2ccc(-c3ccc(CO)cc3)cc2)[C@H]1C(=O)O` [Example 5, (S)-4-(4′-Hydroxymethyl-biphenyl-4-sulfonyl)-2,2-dimethyl-thiomorpholine-3-carboxylic acid], the IC50 worked out at 0.063 µM in assay [1]; 0.027 µM in assay [2]; 10 µM in assay [3]; 1.5 µM in assay [4]; 0.24 µM in assay [5]; 0.047 µM in assay [6]. The same compound returned an IC50 in assay [7] of 0.018 µM.

Turning to `CC1(C)SCCN(S(=O)(=O)c2ccc(-c3ccc4ccccc4c3)cc2)[C@H]1C(=O)O` [Example 36, (S)-2,2-Dimethyl-4-(4-naphthalen-2-yl-benzenesulfonyl)-thiomorpholine-3-carboxylic acid], the IC50 in assay [1] stood at 0.13 µM; in assay [2], 0.0104 µM; in assay [3] it was 31.7 µM; in assay [4], 10.8 µM; at MMP-12CD, 0.00113 µM; in assay [5] it was 0.0567 µM. Further, the IC50 was determined as 0.0108 µM in assay [6] and 0.00635 µM in assay [7].

In the case of `CC1(C)SCCN(S(=O)(=O)c2ccc(-c3ccc(-c4ccccc4)cc3)cc2)[C@H]1C(=O)O` [Example 38, (S)-2,2-Dimethyl-4-([1,1′;4′,1″]terphenyl-4-sulfonyl)-thiomorpholine-3-carboxylic acid], the IC50 in assay [1] was 0.0032 µM; in assay [2], 0.00295 µM; in assay [3], 2.67 µM; in assay [4] it was 1.17 µM; against MMP-12CD it was 0.001 µM; in assay [5], 0.0343 µM. The IC50 was found to be 0.00145 µM in assay [6] and 0.00135 µM in assay [7].

As for `CC1(C)SCCN(S(=O)(=O)c2ccc(-c3ccc(F)cc3F)cc2)[C@H]1C(=O)O` [Example 39, (S)-4-(2′,4′-Difluoro-biphenyl-4-sulfonyl)-2,2-dimethyl-thiomorpholine-3-carboxylic acid], the IC50 was 2.78 µM in assay [1]; 0.0285 µM in assay [2]; 25 µM in assay [3]; 3.25 µM in assay [4]; 0.013 µM against MMP-12CD; 0.67 µM in assay [5]. Also, the IC50 in assay [6] was determined as 0.16 µM; in assay [7] it was 0.115 µM.

For `CC1(C)SCCN(S(=O)(=O)c2ccc(-c3ccc(Oc4ccccc4)cc3)cc2)[C@H]1C(=O)O` [Example 40, (S)-2,2-Dimethyl-4-(4′-phenoxy-biphenyl-4-sulfonyl)-thiomorpholine-3-carboxylic acid], the IC50 in assay [1] was 2.2 µM; in assay [2], 0.0094 µM; in assay [3], 13 µM; at MMP-12CD, 0.004 µM; in assay [5], 1.5 µM; in assay [6], 0.1 µM. The compound also came in with an IC50 in assay [7] of 0.17 µM.

Consider `CC1(C)SCCN(S(=O)(=O)c2ccc(-c3ccc(F)c(F)c3)cc2)[C@H]1C(=O)O` [Example 41, (S)-4-(3′,4′-Difluoro-biphenyl-4-sulfonyl)-2,2-dimethyl-thiomorpholine-3-carboxylic acid], for which the IC50 worked out at 6.65 µM in assay [1]; 0.054 µM in assay [2]; 92.5 µM in assay [3]; 9.7 µM in assay [4]; 0.0285 µM on MMP-12CD; 0.615 µM in assay [5]. In addition, the IC50 in assay [6] turned out to be 0.3 µM; in assay [7], 0.23 µM.

As to `CCOc1ccc(-c2ccc(S(=O)(=O)N3CCSC(C)(C)[C@@H]3C(=O)O)cc2)cc1` [Example 43, (S)-4-(4′-Ethoxy-biphenyl-4-sulfonyl)-2,2-dimethyl-thiomorpholine-3-carboxylic acid], the IC50 in assay [1] was 0.018 µM; in assay [2], 0.0038 µM; in assay [3], 70 µM; in assay [4], 7.95 µM; against MMP-12CD it was 0.001 µM; in assay [5], 0.16 µM. In addition, the figures for the IC50 in assay [6] and in assay [7] were 0.0033 µM and 0.0023 µM, respectively.

Turning to `CC1(C)SCCN(S(=O)(=O)c2ccc(-c3ccc(OC(F)(F)F)cc3)cc2)[C@H]1C(=O)O` [Example 45, (S)-2,2-Dimethyl-4-(4′-trifluoromethoxy-biphenyl-4-sulfonyl)-thiomorpholine-3-carboxylic acid], the IC50 in assay [1] came out at 0.098 µM; in assay [2], 0.004 µM; in assay [4], 5.75 µM; at MMP-12CD, 0.001 µM; in assay [5], 0.128 µM; in assay [7], 0.0027 µM.

Regarding `CCc1ccc(-c2ccc(S(=O)(=O)N3CCSC(C)(C)[C@@H]3C(=O)O)cc2)cc1` [Example 47, (S)-4-(4′-Ethyl-biphenyl-4-sulfonyl)-2,2-dimethyl-thiomorpholine-3-carboxylic acid], the IC50 was determined as 0.14 µM in assay [1]; 0.0074 µM in assay [2]; 9 µM in assay [3]; 5.4 µM in assay [4]; 0.00125 µM on MMP-12CD; 0.01 µM in assay [6]. In assay [7], the IC50 worked out at 0.0061 µM.

For the compound `CC1(C)SCCN(S(=O)(=O)c2ccc(-c3ccc(-c4ccccc4)c(F)c3)cc2)[C@H]1C(=O)O` [Example 53, (S)-4-(2′-Fluoro-[1,1′;4′,1″]terphenyl-4″-sulfonyl)-2,2-dimethyl-thiomorpholine-3-carboxylic acid], the IC50 in assay [1] worked out at 0.017 µM; in assay [2] it was 0.0072 µM; in assay [3], 1.85 µM; in assay [4], 3.15 µM; against MMP-12CD, 0.001 µM; in assay [5] it was 0.145 µM. The results for the IC50 in assay [6] and in assay [7] were 0.0086 µM and 0.0043 µM, respectively.

For the compound `CN(C)c1ccc(-c2ccc(S(=O)(=O)N3CCSC(C)(C)[C@@H]3C(=O)O)cc2)cc1` [Example 54], the IC50 is 0.17 µM in assay [1]; 0.03 µM in assay [2]; 11.3 µM in assay [4]; 0.0103 µM at MMP-12CD; 0.19 µM in assay [5]; 0.013 µM in assay [6]. Half-maximal inhibition in assay [7] (IC50) required 0.024 µM.
